Earlier results, collected in patent publication US7572882B2 (priority 2000, dated 2009).

Legend:
[1] = test system: T helper lymphocytes; settings: regardless of HLA type
[2] = test system: HLA-DR alleles

Substance: aKXVAAWTLKAAa
- stimulation of the response of T helper lymphocytes [1]: stimulate the response of T helper lymphocytes from most individuals
- binding to HLA-DR alleles [2]: bind to most HLA-DR alleles
